Measured values: patent publication US9452990B2, “Complement pathway modulators and uses thereof” (NOVARTIS AG, priority 2012, dated 2016)
Structures can show the parent of a compound that is named as a salt.

Target: human complement factor B (CVF-Bb complex) (Homo sapiens (Human), UniProt P00751)
Assay: Human Complement Factor B ELISA Assay
Format: biochemical
How it was run: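 Preformed CVF-Bb complex (3 nM; cobra venom factor with recombinant human factors B and D) preincubated with compound 1 h, RT, in PBS pH 7.4, 10 mM MgCl2, 0.05% CHAPS. Plasma C3 added at 1 μM final for 1 h, then stopped; C3a product measured by ELISA, IC50 from % inhibition.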

Structure (SMILES) | IC50
COc1cc2c(N)nc(N3CCN(C(=O)C[C@@H](N)c4ccc(C#N)cc4)C[C@@H]3C)nc2c(F)c1OC [Example 58, 4-{(R)-1-Amino-3-[(S)-4-(4-amino-8-fluoro-6,7-dimethoxy-quinazolin-2-yl)-3-methyl-piperazin-1-yl]-3-oxo-propyl}-benzonitrile hydrochloride] | 9 nM
COc1cc2c(N)nc(N3CCN(C(=O)C[C@@H](N)c4ccccc4F)C[C@@H]3C)nc2c(F)c1OC [Example 59, (R)-3-Amino-1-[(S)-4-(4-amino-8-fluoro-6,7-dimethoxy-quinazolin-2-yl)-3-methyl-piperazin-1-yl]-3-(2-fluoro-phenyl)-propan-1-one hydrochloride] | 160 nM
COc1cc2c(N)nc(N3CCN(C(=O)C[C@@H](N)c4ccc(F)cc4)C[C@@H]3C)nc2c(F)c1OC [Example 60, (R)-3-Amino-1-[(S)-4-(4-amino-8-fluoro-6,7-dimethoxy-quinazolin-2-yl)-3-methyl-piperazin-1-yl]-3-(4-fluoro-phenyl)-propan-1-one hydrochloride] | 20 nM
COc1cc2c(N)nc(N3CCN(C(=O)C[C@@H](N)c4ccc(C(F)(F)F)cc4)C[C@@H]3C)nc2c(F)c1OC [Example 61, (R)-3-Amino-1-[(S)-4-(4-amino-8-fluoro-6,7-dimethoxy-quinazolin-2-yl)-3-methyl-piperazin-1-yl]-3-(4-trifluoromethyl-phenyl)-propan-1-one hydrochloride] | 40 nM
COc1cc2c(N)nc(N3CCN(C(=O)C[C@@H](N)Cc4ccccc4)C[C@@H]3C)nc2c(F)c1OC [Example 62, (S)-3-Amino-1-[(S)-4-(4-amino-8-fluoro-6,7-dimethoxy-quinazolin-2-yl)-3-methyl-piperazin-1-yl]-4-phenyl-butan-1-one hydrochloride] | 2250 nM
COc1cc2c(N)nc(N3CCN(C(=O)C[C@@H](N)Cc4ccncc4)C[C@@H]3C)nc2c(F)c1OC [Example 63, (S)-3-Amino-1-[(S)-4-(4-amino-8-fluoro-6,7-dimethoxy-quinazolin-2-yl)-3-methyl-piperazin-1-yl]-4-pyridin-4-yl-butan-1-one hydrochloride] | 7320 nM
CC[C@H]1CN(C(=O)C[C@@H](N)c2ccc(C#N)cc2)CCN1c1nc(N)c2cc(OC)c(OC)c(F)c2n1 [Example 64, 4-{(R)-1-Amino-3-[(S)-4-(4-amino-8-fluoro-6,7-dimethoxy-quinazolin-2-yl)-3-ethyl-piperazin-1-yl]-3-oxo-propyl}-benzonitrile hydrochloride] | 7 nM
CC[C@H]1CN(C(=O)C[C@@H](N)c2ccc(F)cc2)CCN1c1nc(N)c2cc(OC)c(OC)c(F)c2n1 [Example 65, (R)-3-Amino-1-[(S)-4-(4-amino-8-fluoro-6,7-dimethoxy-quinazolin-2-yl)-3-ethyl-piperazin-1-yl]-3-(4-fluoro-phenyl)-propan-1-one hydrochloride] | 30 nM
CC[C@H]1CN(C(=O)C[C@@H](N)c2ccc(C(F)(F)F)cc2)CCN1c1nc(N)c2cc(OC)c(OC)c(F)c2n1 [Example 66, (R)-3-Amino-1-[(S)-4-(4-amino-8-fluoro-6,7-dimethoxy-quinazolin-2-yl)-3-ethyl-piperazin-1-yl]-3-(4-trifluoromethyl-phenyl)-propan-1-one hydrochloride] | 90 nM
CCC[C@H]1CN(C(=O)C[C@@H](N)c2ccc(C#N)cc2)CCN1c1nc(N)c2cc(OC)c(OC)c(F)c2n1 [Example 67, 4-{(R)-1-Amino-3-[(S)-4-(4-amino-8-fluoro-6,7-dimethoxy-quinazolin-2-yl)-3-propyl-piperazin-1-yl]-3-oxo-propyl}-benzonitrile hydrochloride] | 10 nM
CCC[C@H]1CN(C(=O)C[C@@H](N)c2ccc(C(F)(F)F)cc2)CCN1c1nc(N)c2cc(OC)c(OC)c(F)c2n1 [Example 68, (R)-3-Amino-1-[(S)-4-(4-amino-8-fluoro-6,7-dimethoxy-quinazolin-2-yl)-3-propyl-piperazin-1-yl]-3-(4-trifluoromethyl-phenyl)-propan-1-one hydrochloride] | 60 nM
